65 compounds from the PolyMetriX glass transition set can be followed below.

± gives the standard deviation of the reports.

In turn, `*/C(=C(/*)c1ccc([Si](C)(C)C)cc1)c1ccccc1` (repeat unit) registered a glass transition temperature of 200.00 °C. The same measure for `*/C(=C/c1cc(OC)c(/C=C(/c2ccc(*)cc2)c2ccc(C(F)(F)F)cc2)cc1OC)c1ccc(C(F)(F)F)cc1` (repeat unit): 208.00 °C. The figure for `*/C(=C/c1cc(OC)c(/C=C(/c2ccc(*)cc2)c2ccc(F)cc2)cc1OC)c1ccc(F)cc1` (repeat unit) is 193.00 °C. In turn, `*/C(=C/c1cc(OC)c(/C=C(/c2ccc(*)cc2)c2ccc(OC)cc2)cc1OC)c1ccc(OC)cc1` (repeat unit) gave a glass transition temperature of 170.00 °C. The figure for `*/C(=C/c1cc(OC)c(/C=C(\c2ccc(F)cc2)c2ccc(-c3ccc(*)cc3)cc2)cc1OC)c1ccc(F)cc1` (repeat unit) is 201.00 °C; for `*/C(=C/c1cc(OCCCCCCCC)c(/C=C(\c2ccccc2)c2ccc3c(c2)Sc2ccc(*)cc2S3)cc1OCCCCCCCC)c1ccccc1` (repeat unit) it is 93.00 °C; for `*/C(C#N)=C/c1cc(OCCCCCCCCCCCC)c(/C=C(\C#N)c2cc(OCCCCCCCCCCCC)c(*)cc2OC)cc1OC` (repeat unit) it is 181.00 °C.

Compound `*/C=C(\C#N)C(=O)Nc1cc(-c2ccc(O)c(NC(=O)/C(C#N)=C/c3ccc(/C=C/c4ccc(N(c5ccccc5)c5ccc(N(c6ccccc6)c6ccc(/C=C/c7ccc(*)s7)cc6)cc5)cc4)s3)c2)ccc1O` (repeat unit) came in with a glass transition temperature of 221.00 °C. The figure for `*/C=C(\C#N)C(=O)OCCCCCCCCCCOC(=O)/C(C#N)=C/c1ccc2c(c1)c1cc(*)ccc1n2CCCCCCC` (repeat unit) is 59.00 °C. The same measure for `*/C=C(\C#N)C(=O)OCCCCCCOC(=O)/C(C#N)=C/c1ccc2c(c1)c1cc(*)ccc1n2CCCCCCC` (repeat unit): 87.00 °C; for `*/C=C(\C#N)C(=O)OCCCCCCOC(=O)/C(C#N)=C/c1ccc2c(c1)c1cc(*)ccc1n2CCCCCCCCCCCCCC` (repeat unit): 53.00 °C; for `*C(*)C(=O)OC` (repeat unit): 85.8 °C. The same measure for `*C(*)F` (repeat unit): 102.00 °C. Take `*C(*)O` (repeat unit): the glass transition temperature was 134.00 °C. The figure for `*C(F)(F)C(*)(F)c1c(F)c(F)c(F)c(F)c1F` (repeat unit) is 194.00 °C; for `*C(F)(F)C1(F)C(F)(F)C(*)(F)C1(F)F` (repeat unit) it is 122.00 °C; for `*C(F)C(*)(F)OC(F)(F)F` (repeat unit) it is -10.00 °C. The figure for `*C([2H])([2H])C(*)(C(=O)OC([2H])([2H])C([2H])([2H])[2H])C([2H])([2H])[2H]` (repeat unit) is 94.00 °C; for `*C([2H])([2H])C(*)(C(=O)OC([2H])([2H])[2H])C([2H])([2H])[2H]` (repeat unit) it is 115.00 °C. The figure for `*C([2H])([2H])C(*)([2H])Cl` (repeat unit) is 85.00 °C.

On to `*C(c1ccc(N(C)C)cc1)C(*)c1ccc([N+](=O)[O-])cc1` (repeat unit), for which the glass transition temperature is 139.00 °C. The same measure for `*C/C=C/N(/C=C/CC1CC(=O)N(c2ccc(Cc3ccc(N4C(=O)CC(*)C4=O)cc3)cc2)C1=O)c1ccc(/N=N/c2ccc([N+](=O)[O-])cc2)cc1` (repeat unit): 277.00 °C; for `*C1=C(c2ccc(-c3ccc4c(c3)C(CCCCCC)(CCCCCC)c3cc(-c5ccc(*)cc5)ccc3-4)cc2)C(=O)N(CCCCCCCC)C1=O` (repeat unit): 122.00 °C. The same measure for `*C1C(*)C2CC1C(C(=O)OCC13CC4CC(CC(C4)C1)C3)C2C(=O)OCC12CC3CC(CC(C3)C1)C2` (repeat unit): 328.00 °C; for `*C1C(*)C2CC1C(C(=O)OCCC13CC4CC(CC(C4)C1)C3)C2C(=O)OCCC12CC3CC(CC(C3)C1)C2` (repeat unit): 300.00 °C; for `*C1C(*)C2CC1C(C(=O)OCc1ccccc1)C2C(=O)OCc1ccccc1` (repeat unit): 277.00 °C. As for `*C1C(*)C2CC1C(COCc1ccccc1)C2COCc1ccccc1` (repeat unit), the glass transition temperature is 176.00 °C.

`*C1C(=O)N(C2CCCCC2)C(=O)C1*` (repeat unit): the glass transition temperature came out at 232.00 °C. In turn, `*C1C(=O)N(CCCCCCCCOc2ccc(-c3ccc(C#N)cc3)cc2)C(=O)C1*` (repeat unit) returned a glass transition temperature of 43.00 °C. The same measure for `*C1C(=O)N(CCCCCOc2ccc(-c3ccc(C#N)cc3)cc2)C(=O)C1*` (repeat unit): 75.00 °C; for `*C1C(=O)N(c2cc(Br)c(O[Si](C)(C)C)c(Br)c2)C(=O)C1*` (repeat unit): 167.00 °C; for `*C1C(=O)N(c2ccc(O[Si](C)(C)C)cc2)C(=O)C1*` (repeat unit): 172.00 °C. The compound `*C1C(=O)N(c2ccccc2C(=O)OC)C(=O)C1*` (repeat unit) returned a glass transition temperature of 259.00 °C.

Regarding `*C1C(=O)OC(=O)C1C1C2CC(C(=O)OC(C)CC)C(C2)C1*` (repeat unit), the glass transition temperature came to 175.00 °C. The same measure for `*C1C(=O)OC(=O)C1C1C2CC(COCCC)C(C2)C1*` (repeat unit): 209.00 °C. Turning to `*C1C2C/C(=C\C)C(C2)C1*` (repeat unit), the glass transition temperature came to 61.40 °C.

In turn, `*C1C2CC(C(=O)OCCc3ccc(N(c4ccccc4)c4cccc(C)c4)cc3)C(C2)C1*` (repeat unit) had a glass transition temperature of 305.00 °C. Consider `*C1C2CC(C(=O)OCCc3ccc(N(c4ccccc4)c4cccc5ccccc45)cc3)C(C2)C1*` (repeat unit), for which the glass transition temperature is 333.00 °C. `*C1C2CC(C)C(C2)C1*` (repeat unit): the glass transition temperature came out at 350.00 °C. `*C1C2CCC(C2)C1*` (repeat unit) showed a glass transition temperature of 240.00 °C.

`*C1C2CCC(C2)C1S(*)(=O)=O` (repeat unit): the glass transition temperature turned out to be 33.00 °C. The same measure for `*C1C=C(CCCCCC)C(*)S1` (repeat unit): 58.1 °C. The figure for `*C1C=CC(*)CC1` (repeat unit) is 125.50 °C. In turn, `*C1CCC(*)C1` (repeat unit) gave a glass transition temperature of 65.10 °C. The same measure for `*CC/C=[C](/*)[Sn]([CH2]CCC)([CH2]CCC)[CH2]CCC` (repeat unit): -80.00 °C; for `*CCC/C=C(/*)c1ccc(OC)cc1` (repeat unit): 11.00 °C; for `*CCCCCCCCCCCCCCCCOC(=O)C/C=C/CC(=O)O*` (repeat unit): -22.00 °C. The same measure for `*CCCCCCCCCCOc1ccc(/C=C2\CC/C(=C\c3ccc(OCCCCCCCCCCOP(=O)(O*)OC)c(OC)c3)C2=O)cc1OC` (repeat unit): 48.00 °C; for `*CCCCCCOc1c(OC)cc(/C=C2\CCC/C(=C\c3cc(OC)c(O*)c(OC)c3)C2=O)cc1OC` (repeat unit): 71.00 °C; for `*CCCCCCOc1ccc(/C=C2\CCC/C(=C\c3ccc(O*)c(OC)c3)C2=O)cc1OC` (repeat unit): 80.00 °C. Take `*CCCCOC(=O)/C=C/C(=O)O*` (repeat unit): the glass transition temperature worked out at 93.00 °C. The figure for `*CCOCCOC(=O)/C=C/C(=O)O*` (repeat unit) is -8.20 °C; for `*NNC(=O)/C=C/C(=O)Nc1cccc(/C=C2\CC/C(=C\c3cccc(NC(=O)/C=C/C(*)=O)c3)C2=O)c1` (repeat unit) it is 104.60 °C; for `*Oc1ccc(NC(=O)/C=C/C(=O)NNC(=O)/C=C/C(=O)Nc2ccc(OC(=O)/C=C/C(=O)NNC(=O)/C=C/C(*)=O)cc2)cc1` (repeat unit) it is 265.00 °C.

In the case of `*c1ccc(/C=C(\c2ccc(OC)cc2)c2ccc(/C(=C/c3ccc(N(*)c4ccccc4)cc3)c3ccc(OC)cc3)cc2)cc1` (repeat unit), the glass transition temperature is 197.00 °C.

Compound `*c1ccc(Cc2ccc(N3C(=O)C4CCC(C5CCC6C(=O)N(*)C(=O)C6C5)CC4C3=O)cc2)cc1` (repeat unit) showed a glass transition temperature of 260.00 °C. The same measure for `*c1ccc(N2C(=O)c3ccc(-c4cccc5c4C(=O)N(*)C5=O)cc3C2=O)cc1` (repeat unit): 405.00 ± 36 °C; for `*c1ccc(Oc2ccc(-c3ccc(Oc4ccc(N5C(=O)C(c6ccccc6)=C(c6ccc(C7=C(c8ccccc8)C(=O)N(*)C7=O)cc6)C5=O)cc4)cc3)cc2)cc1` (repeat unit): 282.00 °C. The figure for `*c1ccc(Oc2ccc(N3C(=O)C(c4ccccc4)=C(c4ccc(C5=C(c6ccccc6)C(=O)N(*)C5=O)cc4)C3=O)cc2)cc1` (repeat unit) is 293.00 °C.

On to `*c1ccc(Oc2ccc(Oc3ccc(N4C(=O)C5CCC(C6CCC7C(=O)N(*)C(=O)C7C6)CC5C4=O)cc3)cc2)cc1` (repeat unit), for which the glass transition temperature is 238.00 °C. The compound `*c1ccc(Oc2cccc(Oc3ccc(N4C(=O)C5CCC(C6CCC7C(=O)N(*)C(=O)C7C6)CC5C4=O)cc3)c2)cc1` (repeat unit) returned a glass transition temperature of 215.00 °C. `*c1ccc2c(c1)C(=O)N(C1CC(C)(C)CC(C)(CN3C(=O)c4ccc(C(*)(C(F)(F)F)C(F)(F)F)cc4C3=O)C1)C2=O` (repeat unit): the glass transition temperature came out at 278.00 °C.

Regarding `*c1ccc2c(c1)C(=O)N(c1ccc(N3C(=O)c4ccc(C(*)(C(F)(F)F)C(F)(F)F)cc4C3=O)cc1)C2=O` (repeat unit), the glass transition temperature came to 355.50 ± 19 °C. As to `*c1ccc2c(c1)C(=O)N(c1cccc(N3C(=O)c4ccc(C(*)(C(F)(F)F)C(F)(F)F)cc4C3=O)c1)C2=O` (repeat unit), the glass transition temperature was 298.00 ± 3.2 °C. The same measure for `*c1cccc(N2C(=O)C3CCC(C4CCC5C(=O)N(*)C(=O)C5C4)CC3C2=O)c1` (repeat unit): 263.00 °C.
